In patent US20240138411A1, “METHOD OF […] OF SUGARCANE” (CORTEVA AGRISCIENCE LLC, priority 2021, published 2024):

System: sugarcane
Assay: Sugarcane flowering inhibition field trials, floral induction rated on UFSCar scale
Format: in vivo
Description: In order to explore the activity of florpyrauxifen as flowering inhibitor in sugarcane, field studies were carried out. Florpyrauxifen-benzyl was tested at rates from 2 to 20 grams active ingredient per hectare (g ai/ha) and compared to Ethrel® 720 (Bayer), the standard treatment. The flowering inhibition effect was assessed by checking the floral induction in sugarcane through the percentage scale recommended by UFSCar (Federal University of Sao Carlos, Sao Paulo, Brazil).
Four trials were carried out in sugarcane where florpyrauxifen-benzyl (Rinskor®), applied at a rate of 2 to 20 g ai/ha, was compared to ethephon (Ethrel® 720) applied at a rate of 475 g ai/ha. Control plots of untreated sugarcane were also evaluated. Rinskor® and Ethrel® 720 were diluted in water and a single application for each study (backpack sprayer) was performed delivering 50 L of spray solution per ha at the reproductive stage of sugarcane and at a maximum 150 days before harvest. The activity of florpyrauxifen-benzyl as a flowering inhibitor was measured via assessments (Scale of flowering inhibition—see chart 1) performed at 0, 14, 30, 45, 60, 75, 90, 120, 150 days after application, or up to harvest time. The assessments were measured in sugarcane stems, rating the flowering induction according to the UFSCar scale shown below. Significance of treatment effect was evaluated with F-approximate test (α=0.1) and least square means from different treatments were compared with Tukey's test.

COc1c(Cl)ccc(-c2nc(C(=O)OCc3ccccc3)c(Cl)c(N)c2F)c1F [Rinskor, florpyrauxifen-benzyl]
7.5%: Frequency 1/1 (0%) (Table 1, 75 DAA, 5 g ai/ha) | Frequency 1/1 (0%) (Table 1, 90 DAA, 10 g ai/ha) | Frequency 1/1 (0%) (Table 1, 90 DAA, 15 g ai/ha) | Frequency 1/1 (0%) (Table 1, 120 DAA, 2 g ai/ha) | Frequency 1/1 (0%) (Table 1, 120 DAA, 10 g ai/ha) | Frequency 1/1 (0%) (Table 1, 120 DAA, 15 g ai/ha)
13.5%: % Referring to Scale (Table 1, 75 DAA, 2 g ai/ha) | % Referring to Scale (Table 1, 90 DAA, 20 g ai/ha)
14.6%: % Referring to Scale (Table 1, 75 DAA, 5 g ai/ha)
32.5%: Frequency 1/1 (0%) (Table 1, 75 DAA, 15 g ai/ha)
92.5%: Frequency 2/1 (15%) (Table 1, 90 DAA, 15 g ai/ha) | Frequency 2/1 (15%) (Table 1, 120 DAA, 2 g ai/ha) | Frequency 2/1 (15%) (Table 1, 120 DAA, 10 g ai/ha) | Frequency 2/1 (15%) (Table 1, 120 DAA, 15 g ai/ha)
12.8%: % Referring to Scale (Table 1, 120 DAA, 5 g ai/ha)
15.0%: Frequency 1/1 (0%) (Table 1, 90 DAA, 20 g ai/ha) | Frequency 1/1 (0%) (Table 1, 120 DAA, 5 g ai/ha)
11.3%: % Referring to Scale (Table 1, 75 DAA, 10 g ai/ha) | % Referring to Scale (Table 1, 90 DAA, 5 g ai/ha)
90.0%: Frequency 2/1 (15%) (Table 1, 90 DAA, 10 g ai/ha)
5.0%: Frequency 3/1 (30%) (Table 1, 75 DAA, 5 g ai/ha) | Frequency 3/1 (30%) (Table 1, 90 DAA, 20 g ai/ha)
25.0%: Frequency 1/1 (0%) (Table 1, 75 DAA, 10 g ai/ha) | Frequency 1/1 (0%) (Table 1, 90 DAA, 5 g ai/ha)
75.0%: Frequency 2/1 (15%) (Table 1, 75 DAA, 10 g ai/ha) | Frequency 2/1 (15%) (Table 1, 90 DAA, 5 g ai/ha)
13.1%: % Referring to Scale (Table 1, 90 DAA, 2 g ai/ha)
12.5%: Frequency 1/1 (0%) (Table 1, 75 DAA, 2 g ai/ha) | Frequency 1/1 (0%) (Table 1, 90 DAA, 2 g ai/ha)
87.5%: Frequency 2/1 (15%) (Table 1, 75 DAA, 5 g ai/ha) | Frequency 2/1 (15%) (Table 1, 90 DAA, 2 g ai/ha)
14.3%: % Referring to Scale (Table 1, 90 DAA, 10 g ai/ha)
67.5%: Frequency 2/1 (15%) (Table 1, 75 DAA, 15 g ai/ha)
80.0%: Frequency 2/1 (15%) (Table 1, 90 DAA, 20 g ai/ha)
30.0%: Frequency 1/1 (0%) (Table 1, 75 DAA, 20 g ai/ha)
85.0%: Frequency 2/1 (15%) (Table 1, 75 DAA, 2 g ai/ha) | Frequency 2/1 (15%) (Table 1, 120 DAA, 5 g ai/ha)
10.5%: % Referring to Scale (Table 1, 75 DAA, 20 g ai/ha)
10.1%: % Referring to Scale (Table 1, 75 DAA, 15 g ai/ha)
70.0%: Frequency 2/1 (15%) (Table 1, 75 DAA, 20 g ai/ha)
2.5%: Frequency 3/1 (30%) (Table 1, 75 DAA, 2 g ai/ha) | Frequency 3/1 (30%) (Table 1, 90 DAA, 10 g ai/ha)
0.0%: Frequency 4/1 (50%) (Table 1, 75 DAA, 2 g ai/ha) | Frequency 4/2 (80%) (Table 1, 75 DAA, 2 g ai/ha) | Frequency 4/3 (90%) (Table 1, 75 DAA, 2 g ai/ha) | Frequency 4/4 (100%) (Table 1, 75 DAA, 2 g ai/ha) | Frequency 4/1 (50%) (Table 1, 75 DAA, 5 g ai/ha) | Frequency 4/2 (80%) (Table 1, 75 DAA, 5 g ai/ha) | Frequency 4/3 (90%) (Table 1, 75 DAA, 5 g ai/ha) | Frequency 4/4 (100%) (Table 1, 75 DAA, 5 g ai/ha) | Frequency 3/1 (30%) (Table 1, 75 DAA, 10 g ai/ha) | Frequency 4/1 (50%) (Table 1, 75 DAA, 10 g ai/ha) | Frequency 4/2 (80%) (Table 1, 75 DAA, 10 g ai/ha) | Frequency 4/3 (90%) (Table 1, 75 DAA, 10 g ai/ha) | Frequency 4/4 (100%) (Table 1, 75 DAA, 10 g ai/ha) | Frequency 3/1 (30%) (Table 1, 75 DAA, 15 g ai/ha) | Frequency 4/1 (50%) (Table 1, 75 DAA, 15 g ai/ha) | Frequency 4/2 (80%) (Table 1, 75 DAA, 15 g ai/ha) | Frequency 4/3 (90%) (Table 1, 75 DAA, 15 g ai/ha) | Frequency 4/4 (100%) (Table 1, 75 DAA, 15 g ai/ha) | Frequency 3/1 (30%) (Table 1, 75 DAA, 20 g ai/ha) | Frequency 4/1 (50%) (Table 1, 75 DAA, 20 g ai/ha) | Frequency 4/2 (80%) (Table 1, 75 DAA, 20 g ai/ha) | Frequency 4/3 (90%) (Table 1, 75 DAA, 20 g ai/ha) | Frequency 4/4 (100%) (Table 1, 75 DAA, 20 g ai/ha) | Frequency 3/1 (30%) (Table 1, 90 DAA, 2 g ai/ha) | Frequency 4/1 (50%) (Table 1, 90 DAA, 2 g ai/ha) | Frequency 4/2 (80%) (Table 1, 90 DAA, 2 g ai/ha) | Frequency 4/3 (90%) (Table 1, 90 DAA, 2 g ai/ha) | Frequency 4/4 (100%) (Table 1, 90 DAA, 2 g ai/ha) | Frequency 3/1 (30%) (Table 1, 90 DAA, 5 g ai/ha) | Frequency 4/1 (50%) (Table 1, 90 DAA, 5 g ai/ha) | Frequency 4/2 (80%) (Table 1, 90 DAA, 5 g ai/ha) | Frequency 4/3 (90%) (Table 1, 90 DAA, 5 g ai/ha) | Frequency 4/4 (100%) (Table 1, 90 DAA, 5 g ai/ha) | Frequency 4/1 (50%) (Table 1, 90 DAA, 10 g ai/ha) | Frequency 4/2 (80%) (Table 1, 90 DAA, 10 g ai/ha) | Frequency 4/3 (90%) (Table 1, 90 DAA, 10 g ai/ha) | Frequency 4/4 (100%) (Table 1, 90 DAA, 10 g ai/ha) | Frequency 3/1 (30%) (Table 1, 90 DAA, 15 g ai/ha) | Frequency 4/1 (50%) (Table 1, 90 DAA, 15 g ai/ha) | Frequency 4/2 (80%) (Table 1, 90 DAA, 15 g ai/ha) | Frequency 4/3 (90%) (Table 1, 90 DAA, 15 g ai/ha) | Frequency 4/4 (100%) (Table 1, 90 DAA, 15 g ai/ha) | Frequency 4/1 (50%) (Table 1, 90 DAA, 20 g ai/ha) | Frequency 4/2 (80%) (Table 1, 90 DAA, 20 g ai/ha) | Frequency 4/3 (90%) (Table 1, 90 DAA, 20 g ai/ha) | Frequency 4/4 (100%) (Table 1, 90 DAA, 20 g ai/ha) | Frequency 3/1 (30%) (Table 1, 120 DAA, 2 g ai/ha) | Frequency 4/1 (50%) (Table 1, 120 DAA, 2 g ai/ha) | Frequency 4/2 (80%) (Table 1, 120 DAA, 2 g ai/ha) | Frequency 4/3 (90%) (Table 1, 120 DAA, 2 g ai/ha) | Frequency 4/4 (100%) (Table 1, 120 DAA, 2 g ai/ha) | Frequency 3/1 (30%) (Table 1, 120 DAA, 5 g ai/ha) | Frequency 4/1 (50%) (Table 1, 120 DAA, 5 g ai/ha) | Frequency 4/2 (80%) (Table 1, 120 DAA, 5 g ai/ha) | Frequency 4/3 (90%) (Table 1, 120 DAA, 5 g ai/ha) | Frequency 4/4 (100%) (Table 1, 120 DAA, 5 g ai/ha) | Frequency 3/1 (30%) (Table 1, 120 DAA, 10 g ai/ha) | Frequency 4/1 (50%) (Table 1, 120 DAA, 10 g ai/ha) | Frequency 4/2 (80%) (Table 1, 120 DAA, 10 g ai/ha) | Frequency 4/3 (90%) (Table 1, 120 DAA, 10 g ai/ha) | Frequency 4/4 (100%) (Table 1, 120 DAA, 10 g ai/ha) | Frequency 3/1 (30%) (Table 1, 120 DAA, 15 g ai/ha) | Frequency 4/1 (50%) (Table 1, 120 DAA, 15 g ai/ha) | Frequency 4/2 (80%) (Table 1, 120 DAA, 15 g ai/ha) | Frequency 4/3 (90%) (Table 1, 120 DAA, 15 g ai/ha) | Frequency 4/4 (100%) (Table 1, 120 DAA, 15 g ai/ha)
13.9%: % Referring to Scale (Table 1, 90 DAA, 15 g ai/ha) | % Referring to Scale (Table 1, 120 DAA, 2 g ai/ha) | % Referring to Scale (Table 1, 120 DAA, 10 g ai/ha) | % Referring to Scale (Table 1, 120 DAA, 15 g ai/ha)
